We go through one compound from paper PMC4579064 (Toxicology and applied pharmacology, 2015).

Data set [1] is classed as in vivo, rat. The note with it: menadione 20 min after parathion; 60 min.
The target of the next data set is T1, CYP1B1 (Homo sapiens, UniProt Q16678).
T1 sequence (Q16678 1-543): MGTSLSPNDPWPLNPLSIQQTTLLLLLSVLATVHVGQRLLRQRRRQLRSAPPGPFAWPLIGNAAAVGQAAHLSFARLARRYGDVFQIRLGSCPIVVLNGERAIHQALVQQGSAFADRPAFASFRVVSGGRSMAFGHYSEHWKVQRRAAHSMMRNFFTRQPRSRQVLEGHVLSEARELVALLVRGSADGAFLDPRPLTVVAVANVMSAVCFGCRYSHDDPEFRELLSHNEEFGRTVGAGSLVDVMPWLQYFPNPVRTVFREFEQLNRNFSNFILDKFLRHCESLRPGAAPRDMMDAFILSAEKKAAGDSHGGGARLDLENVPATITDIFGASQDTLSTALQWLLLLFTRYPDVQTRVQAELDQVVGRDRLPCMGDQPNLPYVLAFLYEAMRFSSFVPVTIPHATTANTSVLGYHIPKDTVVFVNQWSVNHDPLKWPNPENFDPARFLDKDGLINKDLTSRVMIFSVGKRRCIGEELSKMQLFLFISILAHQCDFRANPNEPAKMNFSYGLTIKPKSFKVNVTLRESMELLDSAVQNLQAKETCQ
T1 sequence (P16435 2-677 partner): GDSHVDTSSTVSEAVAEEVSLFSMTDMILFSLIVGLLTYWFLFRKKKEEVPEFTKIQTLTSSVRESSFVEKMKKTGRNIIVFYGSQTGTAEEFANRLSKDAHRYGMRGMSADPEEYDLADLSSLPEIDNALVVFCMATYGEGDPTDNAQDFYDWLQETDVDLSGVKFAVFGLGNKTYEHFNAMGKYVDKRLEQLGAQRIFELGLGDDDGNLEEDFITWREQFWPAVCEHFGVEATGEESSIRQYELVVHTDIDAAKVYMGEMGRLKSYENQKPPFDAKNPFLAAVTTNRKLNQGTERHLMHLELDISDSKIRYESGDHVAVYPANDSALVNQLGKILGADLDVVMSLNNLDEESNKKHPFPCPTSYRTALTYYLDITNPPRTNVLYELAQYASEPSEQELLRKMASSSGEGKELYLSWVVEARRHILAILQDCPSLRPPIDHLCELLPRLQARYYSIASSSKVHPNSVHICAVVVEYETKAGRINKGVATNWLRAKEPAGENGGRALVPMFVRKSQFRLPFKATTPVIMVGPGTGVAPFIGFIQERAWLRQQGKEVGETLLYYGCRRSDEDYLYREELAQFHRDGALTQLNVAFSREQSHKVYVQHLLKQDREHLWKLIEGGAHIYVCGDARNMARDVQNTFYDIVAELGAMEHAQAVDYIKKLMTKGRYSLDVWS
The data set can be described thus: recombinant CYP activity with fluorogenic substrate. The data set is classed as biochemical.

The next data set deals with CYP3A5 (Homo sapiens, UniProt P20815). The data set is described as above. The data set is classed as biochemical.
CYP3A5, sequence (P20815 whole entry, one chain of several): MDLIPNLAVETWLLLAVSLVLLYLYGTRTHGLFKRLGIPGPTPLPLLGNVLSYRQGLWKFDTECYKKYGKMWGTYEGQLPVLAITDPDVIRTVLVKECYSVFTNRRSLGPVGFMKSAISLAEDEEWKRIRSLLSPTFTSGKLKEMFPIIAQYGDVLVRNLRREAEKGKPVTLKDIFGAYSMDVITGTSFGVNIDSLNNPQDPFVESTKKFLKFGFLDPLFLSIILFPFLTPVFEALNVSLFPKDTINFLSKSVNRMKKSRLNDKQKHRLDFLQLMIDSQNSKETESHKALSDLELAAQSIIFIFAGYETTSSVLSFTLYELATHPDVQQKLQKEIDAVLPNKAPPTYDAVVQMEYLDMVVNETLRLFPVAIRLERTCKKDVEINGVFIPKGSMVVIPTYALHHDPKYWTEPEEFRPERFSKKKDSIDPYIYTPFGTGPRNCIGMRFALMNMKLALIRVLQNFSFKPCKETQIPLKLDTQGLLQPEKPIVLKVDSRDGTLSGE
The next data set has as its system female Long-Evans rats. The note with it: menadione 40 mg/kg ip 20 min after parathion 8 mg/kg oral.
For data set [2], the target named is T2, recombinant human CPR (Homo sapiens, UniProt P16435).
T2 sequence (P16435 1-677): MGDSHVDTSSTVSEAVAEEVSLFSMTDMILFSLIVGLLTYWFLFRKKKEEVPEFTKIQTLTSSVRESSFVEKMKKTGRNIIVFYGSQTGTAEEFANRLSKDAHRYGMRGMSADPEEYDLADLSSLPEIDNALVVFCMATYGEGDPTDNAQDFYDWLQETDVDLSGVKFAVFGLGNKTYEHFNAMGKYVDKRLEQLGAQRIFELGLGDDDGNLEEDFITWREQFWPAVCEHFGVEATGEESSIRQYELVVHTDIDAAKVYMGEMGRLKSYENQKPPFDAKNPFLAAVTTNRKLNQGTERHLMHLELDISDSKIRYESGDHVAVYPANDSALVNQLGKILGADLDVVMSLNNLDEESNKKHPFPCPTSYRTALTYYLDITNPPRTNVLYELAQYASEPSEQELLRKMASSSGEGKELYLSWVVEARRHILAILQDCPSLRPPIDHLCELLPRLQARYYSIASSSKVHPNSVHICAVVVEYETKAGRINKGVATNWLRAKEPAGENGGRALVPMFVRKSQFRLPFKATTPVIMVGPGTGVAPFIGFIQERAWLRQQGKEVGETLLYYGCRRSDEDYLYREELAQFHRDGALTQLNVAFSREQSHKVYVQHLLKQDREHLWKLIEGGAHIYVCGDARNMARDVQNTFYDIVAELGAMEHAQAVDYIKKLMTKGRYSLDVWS
Kind of data set: CPR-mediated redox cycling, H2O2 formation. The note with it: menadione as redox cycling substrate of CPR; Amplex Red. Type of data set: biochemical.

Another data set concerns the target CYP2C9 (Homo sapiens, UniProt P11712). The data set can be described thus: recombinant CYP activity with fluorogenic substrate. The data set is classed as biochemical.
A further data set deals with T3, CYP2B6 (Homo sapiens, UniProt P20813).
T3 sequence (P20813 1-491): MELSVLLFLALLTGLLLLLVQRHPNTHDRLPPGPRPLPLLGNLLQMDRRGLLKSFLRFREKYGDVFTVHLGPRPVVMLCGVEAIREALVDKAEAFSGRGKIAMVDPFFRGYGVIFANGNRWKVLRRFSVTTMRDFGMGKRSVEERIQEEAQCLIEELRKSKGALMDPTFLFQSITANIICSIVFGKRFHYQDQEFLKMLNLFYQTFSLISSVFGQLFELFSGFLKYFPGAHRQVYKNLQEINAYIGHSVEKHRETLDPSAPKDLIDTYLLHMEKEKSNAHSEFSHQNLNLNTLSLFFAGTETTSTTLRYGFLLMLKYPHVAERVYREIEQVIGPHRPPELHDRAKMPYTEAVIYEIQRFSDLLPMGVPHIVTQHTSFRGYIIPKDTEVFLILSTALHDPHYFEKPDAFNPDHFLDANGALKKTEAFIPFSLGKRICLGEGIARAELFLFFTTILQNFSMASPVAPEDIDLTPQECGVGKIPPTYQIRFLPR

Data set [3] addresses T2, recombinant human CPR. The data set can be described thus: CPR-mediated redox cycling, hydroxyl radical formation. The data set is classed as biochemical. The note with it: menadione; Fe/EDTA, terephthalate.
For the next data set, the system named is liver Ces. Kind of data set: liver carboxylesterase. Type of data set: in vivo, rat. The note with it: menadione 20 min after parathion.

CYP2C9, sequence (P11712 whole entry, one chain of several): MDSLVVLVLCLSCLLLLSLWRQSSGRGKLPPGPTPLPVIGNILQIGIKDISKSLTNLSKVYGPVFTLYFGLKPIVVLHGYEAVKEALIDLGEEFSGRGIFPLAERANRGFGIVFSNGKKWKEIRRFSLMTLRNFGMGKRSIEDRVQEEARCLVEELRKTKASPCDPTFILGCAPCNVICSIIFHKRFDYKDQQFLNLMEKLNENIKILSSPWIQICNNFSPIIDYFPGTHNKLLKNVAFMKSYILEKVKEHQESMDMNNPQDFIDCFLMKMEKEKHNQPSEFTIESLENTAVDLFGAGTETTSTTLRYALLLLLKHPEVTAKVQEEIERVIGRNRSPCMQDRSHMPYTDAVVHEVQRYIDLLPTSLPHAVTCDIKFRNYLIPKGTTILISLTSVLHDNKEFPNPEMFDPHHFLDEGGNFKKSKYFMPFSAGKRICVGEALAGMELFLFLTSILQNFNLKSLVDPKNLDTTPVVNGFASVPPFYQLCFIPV

Usually IC50 stands for the midpoint of a concentration-inhibition curve. As to `CC1=CC(=O)c2ccccc2C1=O` [menadione, 2-methylnaphthalene-1,4-dione], in data set [1], the “liver levels of parathion” value is “without altering”; the parathion in blood entry is “striking increase”; the “serum and brain parathion levels” value is recorded as “significant increases”. In addition, the 50% inhibitory concentration (IC50) at CYP1B1 came out at 7.02 ± 0.53 µM. Besides, at CYP3A5, the IC50 worked out at 9.77 ± 3.33 µM. The “parathion toxicity (startle response, tremulous jaw movement, tremors and convulsions)” value with female Long-Evans rats is “marked reduction”. Further, on recombinant human CPR [2], the “Vmax for H2O2 formation” value is on record as 4.4 µmol/min/mg CPR protein. The IC50 at CYP2C9 worked out at 8.91 ± 0.57 µM. For the same compound, at CYP2B6, the paraoxon formation result is “marked decrease”. For the same compound, the “Vmax for formation of 2-hydroxyterephthalate, a marker of hydroxyl radicals” value at recombinant human CPR [3] turned out to be 1.2 µmol/min/mg CPR protein. The “inhibition of liver Ces by parathion” value in the data set with liver Ces is given as “reduced the inhibition”.
